The text below walks through data of BindingDB's records for patent US20240368170 (Genentech, 2024).

Structures are written as SMILES.

The experiment concerns the target Mitogen-activated protein kinase kinase kinase kinase 1 (Homo sapiens, UniProt Q92918). The experiment is described as follows: Lantha Binding Assay. As to the method:
For the binding assay, 4 μL 2×HPK1 and Eu-anti-GST antibody were added to each well of the assay plate using a Multidrop reagent dispenser. The solutions were incubated in a 23 C incubator for 1 h. […] The solutions were again incubated in a 23° C. incubator for 1 h.

A word on the Ki: it is the equilibrium dissociation constant of an inhibitor or competing ligand from its target.

Chain of Mitogen-activated protein kinase kinase kinase kinase 1 (Q92918 whole entry): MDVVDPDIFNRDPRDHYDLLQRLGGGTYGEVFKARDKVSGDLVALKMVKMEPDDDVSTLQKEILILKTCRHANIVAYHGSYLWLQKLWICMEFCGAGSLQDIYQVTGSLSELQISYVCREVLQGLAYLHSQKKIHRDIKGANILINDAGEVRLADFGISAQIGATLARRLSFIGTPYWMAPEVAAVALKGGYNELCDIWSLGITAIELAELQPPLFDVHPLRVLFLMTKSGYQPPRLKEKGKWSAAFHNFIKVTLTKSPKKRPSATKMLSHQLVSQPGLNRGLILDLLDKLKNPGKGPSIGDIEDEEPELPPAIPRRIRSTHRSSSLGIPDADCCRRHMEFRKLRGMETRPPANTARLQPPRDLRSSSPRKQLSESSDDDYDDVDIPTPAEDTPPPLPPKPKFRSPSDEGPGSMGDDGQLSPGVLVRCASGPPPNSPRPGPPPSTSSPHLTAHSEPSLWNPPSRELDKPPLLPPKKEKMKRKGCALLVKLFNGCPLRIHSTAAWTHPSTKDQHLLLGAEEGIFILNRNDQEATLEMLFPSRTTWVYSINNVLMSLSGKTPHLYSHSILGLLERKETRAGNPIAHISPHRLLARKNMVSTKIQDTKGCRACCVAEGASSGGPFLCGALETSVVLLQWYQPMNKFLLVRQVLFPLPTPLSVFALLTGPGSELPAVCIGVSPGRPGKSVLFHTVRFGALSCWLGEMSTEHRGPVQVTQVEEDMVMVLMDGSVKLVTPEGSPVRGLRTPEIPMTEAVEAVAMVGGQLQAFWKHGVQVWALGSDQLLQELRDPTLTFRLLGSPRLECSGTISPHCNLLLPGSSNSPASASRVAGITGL

Consider `CC(C)NC(=O)Nc1cc2cc(-c3cnn(C)c3)cc(N)c2nn1` [US20240368170, Compound 8], for which the inhibition constant (Ki) came to 21 nM.
As to `CCn1cc(-c2cc(N)c3nnc(NC(=O)[C@@H]4C[C@@H]4F)cc3c2)cn1` [US20240368170, Compound 1a], the affinity, expressed as Ki, was 84 nM.
